Measurements: the NIST ThermoML archive (doi:10.1021/acs.jced.9b00507)
± gives the expanded uncertainty stated by the source.

Conditions: 100 kPa, Liquid; for viscosity: Concentric cylinders viscometry; for mass density: Vibrating tube method

Work on `CCCCCCn1cc[n+](C)c1.O=[N+]([O-])[O-]` [1-hexyl-3-methylimidazolium nitrate] yielded a viscosity (293.15 K) of 804.17 ± 70 mPa·s, a mass density (293.15 K) of 1120.3 ± 1.4 kg/m3 and a viscosity (298.15 K) of 545.25 ± 47 mPa·s. The mass density (298.15 K) was 1117.5 ± 1.4 kg/m3, the viscosity (303.15 K) was 369.14 ± 31 mPa·s and the mass density (303.15 K) was 1114.3 ± 1.4 kg/m3. The viscosity (308.15 K) was 257.59 ± 21 mPa·s, the mass density (308.15 K) was 1111.1 ± 1.4 kg/m3 and the viscosity (313.15 K) was 185.67 ± 15 mPa·s. For the same molecule, the mass density (313.15 K) was 1107.8 ± 1.4 kg/m3, the viscosity (318.15 K) was 140.18 ± 11 mPa·s and the mass density (318.15 K) was 1104.7 ± 1.4 kg/m3. The viscosity (323.15 K) was 110.94 ± 9 mPa·s and the mass density (323.15 K) was 1101.6 ± 1.4 kg/m3.
